From paper PMC12529303, “A phase I study of AZD8186 in combination with docetaxel in patients with PTEN-mutated or PIK3CB-mutated advanced solid tumors” (ESMO Open, 2025)
Read-outs that look alike come from different tables or passages of the source.

Key:
[1] = clinical; conditions: human, in vivo
Procedure: (§1) Plasma samples were collected at predefined time points based upon the dosing schedules for docetaxel and AZD8186. Cycle 1, day 1 (C1D1) pretreatment baseline measurements were collected for both drugs. For docetaxel, samples were collected as follows: C2D1, pretreatment, 30 min and 55 min after the start of the docetaxel infusion, and 2 h and 5 h after the end of the docetaxel infusion; C2D2, ∼24 h after the start of the docetaxel infusion. For AZD8186, samples were collected as follows: C2D1, pretreatment and 1 h, 3 h, and 6 h after dosing; C2D2, ∼24 h after dose and before the next AZD8186 dose. Starting from cycle 3, a day 1 pretreatment sample was collected at each scheduled visit.
Plasma concentrations of docetaxel were quantified using a validated liquid chromatography and tandem mass spectrometry.[36] The lower limit of quantitation for docetaxel was 0.5 ng/ml. AZD8186 plasma concentration was quantified using a validated ultraperformance liquid chromatography and tandem mass spectrometry method with a 5-2000 ng/ml dynamic range. […]
Statistical analysis for pharmacokinetic (PK) studies was carried out using Graph Pad Prism software version 9.4.1 (GraphPad Software, Inc., Boston, MA). PK parameters were evaluated statistically by Kruskal–Wallis test. Significance was determined at a level of P < 0.05. […]

[2] = system: castration-resistant prostate cancer with PTEN loss; design: method as in PMID 28645941; conditions: cited from earlier work
[3] = system: advanced solid tumors; design: method as in PMID 35247924; conditions: 60 mg b.i.d. and 120 mg b.i.d.; cited from earlier work
[4] = system: xenograft mouse models; design: method as in PMID 32215185, PMID 25398829; conditions: cited from earlier work
[5] = system: PTEN-null and PI3Kβ-driven preclinical models of breast and prostate cancer; design: method as in PMID 32215185, PMID 25398829; conditions: in vitro; cited from earlier work
[6] = AZD8186 plasma pharmacokinetics (UPLC-MS/MS, noncompartmental); assay type: in vivo, human; conditions: for Cmin,ss / Cmax / Tmax / AUC(0-t): plasma; for Cmax / Tmax / AUC(0-t): human, oral, C2D1; for AUC(0-t): read-out: AUC0-6h
Procedure: as §1
Plasma concentrations of docetaxel were quantified using a validated liquid chromatography and tandem mass spectrometry.[36] The lower limit of quantitation for docetaxel was 0.5 ng/ml. AZD8186 plasma concentration was quantified using a validated ultraperformance liquid chromatography and tandem mass spectrometry method with a 5-2000 ng/ml dynamic range. Assays were carried out at the Sidney Kimmel Comprehensive Cancer Center Analytical Pharmacology Core Laboratory at Johns Hopkins University.
Statistical analysis for pharmacokinetic (PK) studies was carried out using Graph Pad Prism software version 9.4.1 (GraphPad Software, Inc., Boston, MA). PK parameters were evaluated statistically by Kruskal–Wallis test. Significance was determined at a level of P < 0.05. Between-group comparisons were conducted using the Wilcoxon signed rank test.

[7] = TAC-1B AZD8186 reduced: docetaxel 45 mg/m^2, AZD8186 30 mg, n=1
[8] = TAC1+GF: docetaxel 75 mg/m^2, AZD8186 60 mg, n=3
[9] = TAC-1: docetaxel 75 mg/m^2, AZD8186 60 mg, n=1
[10] = TAC-1B: docetaxel 60 mg/m^2, AZD8186 60 mg, n=1
[11] = TAC-2: docetaxel 75 mg/m^2, AZD8186 120 mg, n=7

## CC(=O)O[C@@]12CO[C@@H]1C[C@H](O)[C@@]1(C)C(=O)[C@H](O)C3=C(C)[C@@H](OC(=O)[C@H](O)[C@@H](NC(=O)OC(C)(C)C)c4ccccc4)C[C@@](O)([C@@H](OC(=O)c4ccccc4)[C@H]21)C3(C)C [docetaxel]
[1]
  Tmax: 0.92 h

## Cc1c(Cn2c(C)nc3c(C(=O)O)cc(N4CCOCC4)cc32)cccc1C(F)(F)F [GSK2636771]
[2]
  responses: only anecdotal responses

## C[C@@H](Nc1cc(F)cc(F)c1)c1cc(C(=O)N(C)C)cc2c(=O)cc(N3CCOCC3)oc12 [AZD8186]
[3]
  tolerability and target inhibition in plasma: tolerable with dose-dependent target inhibition in plasma
[4]
  single-agent activity in vivo: limited single-agent activity
[5]
  PI3K signaling and viability: inhibited PI3K signaling and viability
[6]; Kruskal-Wallis
  steady-state trough concentrations across dosing cohorts: not significantly different
[6]; TAC1+GF: docetaxel 75 mg/m^2, AZD8186 60 mg, n=1
  Cmin,ss: 176.0 (1) ng/mL
[6]; TAC-1: docetaxel 75 mg/m^2, AZD8186 60 mg, mean ± SD, n=3
  Cmin,ss: 149.8 ± 77.2 (3) ng/mL
[6]; TAC-1 AZD8186 reduced: docetaxel 60 mg/m^2, AZD8186 30 mg, n=1
  Cmin,ss: 66.0 (1) ng/mL
[6]; [7]
  Cmin,ss: 130.0 (1) ng/mL
  Cmax: 253 ng/mL
  Tmax: 8.43 h
  AUC(0-t): 789 ng·h/mL
[6]; TAC-1B: docetaxel 60 mg/m^2, AZD8186 60 mg, mean ± SD, n=3
  Cmin,ss: 83.5 ± 55.1 (3) ng/mL
[6]; TAC-2: docetaxel 75 mg/m^2, AZD8186 120 mg, mean ± SD, n=6
  Cmin,ss: 76.8 ± 49.2 (6) ng/mL
[6]; TAC1+GF: docetaxel 75 mg/m^2, AZD8186 60 mg
  Cmax: 166 ng/mL
[6]; [8]
  Tmax: 2.76 h
  AUC(0-t): 224 ng·h/mL
[6]; TAC-1: docetaxel 75 mg/m^2, AZD8186 60 mg
  Cmax: 464 ng/mL
[6]; [9]
  Tmax: 3.87 h
  AUC(0-t): 1110 ng·h/mL
[6]; [10]
  Cmax: 285 ng/mL
  Tmax: 4.75 h
  AUC(0-t): 808 ng·h/mL
[6]; TAC-2: docetaxel 75 mg/m^2, AZD8186 120 mg
  Cmax: 532 ng/mL
[6]; [11]
  Tmax: 4.43 h
  AUC(0-t): 1800 ng·h/mL
